How the values were obtained:
Type in all cases: biochemical
[1] = target: T1, DYRK2 (h) (Homo sapiens, UniProt Q92630); test: radiometric kinase assay (KinaseProfiler, Eurofins), DYRK2; settings: in vitro radiometric kinase assay, tested at 1 nM to 10 000 nM, no pre-incubation; read-out: inhibitory activities (IC50 values) DYRK2
T1 construct: purchased Eurofins (KinaseProfiler)
T1 sequence (Q92630 1-601): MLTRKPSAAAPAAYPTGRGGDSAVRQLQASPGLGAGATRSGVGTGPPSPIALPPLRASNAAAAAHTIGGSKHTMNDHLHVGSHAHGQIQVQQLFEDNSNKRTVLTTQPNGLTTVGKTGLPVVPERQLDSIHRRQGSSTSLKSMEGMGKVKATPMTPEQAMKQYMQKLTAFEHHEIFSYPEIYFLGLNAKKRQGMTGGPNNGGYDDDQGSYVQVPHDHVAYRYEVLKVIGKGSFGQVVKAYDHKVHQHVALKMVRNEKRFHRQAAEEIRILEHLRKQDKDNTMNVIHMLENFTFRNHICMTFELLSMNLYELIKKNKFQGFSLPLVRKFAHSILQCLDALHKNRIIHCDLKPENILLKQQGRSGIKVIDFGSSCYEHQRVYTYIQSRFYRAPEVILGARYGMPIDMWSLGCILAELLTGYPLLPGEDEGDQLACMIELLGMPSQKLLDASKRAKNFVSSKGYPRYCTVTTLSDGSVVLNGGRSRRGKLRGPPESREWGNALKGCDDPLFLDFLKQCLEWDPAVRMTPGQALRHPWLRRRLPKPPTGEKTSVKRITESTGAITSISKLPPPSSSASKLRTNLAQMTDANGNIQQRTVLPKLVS
Experimental: (§1) The compounds were profiled in the radiometric assays (KinaseProfiler, Eurofins).
(§2) All compounds were prepared to 50x final assay concentration in 100% DMSO. This working stock of the compound was added to the assay well as the first component in the reaction, followed by the remaining components as detailed in the general assay protocols below. There was no pre-incubation step between the compound and the kinase prior to initiation of the reaction.
(§3) DYRK2 (h) was incubated with 8 mM MOPS pH 7.0, 0.2 mM EDTA, 2 mg/mL casein, 10 mM magnesium acetate and γ-^33P-ATP (specific activity and concentration as required). The reaction was initiated by the addition of the Mg/ATP mix. After incubation for 40 minutes at room temperature, the reaction was stopped by the addition of phosphoric acid to a concentration of 0.5%. An aliquot of the reaction was then spotted onto a filter and washed four times for 4 minutes in 0.425% phosphoric acid and once in methanol prior to drying and scintillation counting.
(§4) Kinase activity data were expressed as the percent remaining kinase activity in tested samples compared to the vehicle (DMSO) reactions. The compounds were tested at the following concentrations: 1 nM, 3 nM, 10 nM, 30 nM, 100 nM, 300 nM, 1000 nM, 3000 nM, and 10 000 nM; IC50 values and curve fits were then obtained.

[2] = target: T2, PIM1 (h) (Homo sapiens, UniProt P11309); test: radiometric kinase assay (KinaseProfiler, Eurofins), PIM1; settings: in vitro radiometric kinase assay, tested at 1 nM to 10 000 nM, no pre-incubation; read-out: inhibitory activities (IC50 values) PIM1
T2 construct: purchased Eurofins (KinaseProfiler)
T2 sequence (P11309 whole entry): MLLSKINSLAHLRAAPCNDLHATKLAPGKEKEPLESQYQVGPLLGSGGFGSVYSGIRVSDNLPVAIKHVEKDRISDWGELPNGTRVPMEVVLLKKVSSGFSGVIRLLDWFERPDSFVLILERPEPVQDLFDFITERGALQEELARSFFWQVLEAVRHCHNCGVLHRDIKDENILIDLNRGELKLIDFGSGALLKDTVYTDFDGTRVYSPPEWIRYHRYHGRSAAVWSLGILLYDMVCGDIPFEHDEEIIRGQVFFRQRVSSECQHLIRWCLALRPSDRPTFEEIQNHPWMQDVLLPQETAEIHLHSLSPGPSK
Experimental: as §1
(§5) Briefly, kinases were diluted in the buffer shown below prior to addition to the reaction mix: • CDKL3, TAF1L: 20 mM Tris/HCl pH 8.5, 0.2 mM EDTA, 0.1% β-mercaptoethanol, 0.01% Brij-35, 5% glycerol, 1 mg/ml BSA; • Haspin: 15 mM MOPS, 0.75 mM EDTA, 0.0075% Brij-35, 3.75% Glycerol, 150 mM NaCl, 0.1% β-mercaptoethanol, 1 mg/mLBSA; • CDKL4, CLK2, PIM1, TRB2: […], 1 mM EDTA, 0.01% Brij-35, 5% Glycerol, 0.1% β-mercaptoethanol, 1 mg/mL BSA.
as §2
as §3, with “PIM1” for “DYRK2”, “100 µM KKRNRTLTV (SEQ ID NO. 4),” for “2 mg/mL casein,”
as §4

[3] = target: T3, CLK2 (h) (Homo sapiens, UniProt P49760); test: radiometric kinase assay (KinaseProfiler, Eurofins), CLK2; settings: in vitro radiometric kinase assay, tested at 1 nM to 10 000 nM, no pre-incubation; read-out: inhibitory activities (IC50 values) CLK2
T3 construct: purchased Eurofins (KinaseProfiler)
T3 sequence (P49760 whole entry): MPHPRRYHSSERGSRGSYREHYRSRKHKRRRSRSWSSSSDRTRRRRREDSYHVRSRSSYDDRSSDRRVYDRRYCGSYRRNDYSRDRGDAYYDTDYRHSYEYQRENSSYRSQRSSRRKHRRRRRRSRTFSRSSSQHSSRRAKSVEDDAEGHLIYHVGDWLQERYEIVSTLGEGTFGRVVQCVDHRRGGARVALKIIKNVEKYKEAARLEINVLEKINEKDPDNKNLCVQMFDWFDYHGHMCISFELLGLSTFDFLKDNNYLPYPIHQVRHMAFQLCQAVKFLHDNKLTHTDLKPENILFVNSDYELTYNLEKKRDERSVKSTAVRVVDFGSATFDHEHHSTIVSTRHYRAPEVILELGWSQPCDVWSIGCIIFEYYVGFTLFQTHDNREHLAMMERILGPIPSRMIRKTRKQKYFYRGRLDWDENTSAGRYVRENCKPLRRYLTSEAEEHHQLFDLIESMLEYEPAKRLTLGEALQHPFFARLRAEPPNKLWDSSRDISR
Experimental: as §1, §5, §2
as §3, with “CLK2” for “DYRK2”, “20 µM […](p)EDEEE (SEQ ID NO. 2),” for “2 mg/mL casein,”
as §4

[4] = target: T4, TAF1L(h) (Homo sapiens, UniProt Q8IZX4); test: radiometric kinase assay (KinaseProfiler, Eurofins), TAF1L; settings: in vitro radiometric kinase assay, tested at 1 nM to 10 000 nM, no pre-incubation; read-out: inhibitory activities (IC50 values) TAF1L
T4 construct: purchased Eurofins (KinaseProfiler)
T4 sequence (Q8IZX4 whole entry): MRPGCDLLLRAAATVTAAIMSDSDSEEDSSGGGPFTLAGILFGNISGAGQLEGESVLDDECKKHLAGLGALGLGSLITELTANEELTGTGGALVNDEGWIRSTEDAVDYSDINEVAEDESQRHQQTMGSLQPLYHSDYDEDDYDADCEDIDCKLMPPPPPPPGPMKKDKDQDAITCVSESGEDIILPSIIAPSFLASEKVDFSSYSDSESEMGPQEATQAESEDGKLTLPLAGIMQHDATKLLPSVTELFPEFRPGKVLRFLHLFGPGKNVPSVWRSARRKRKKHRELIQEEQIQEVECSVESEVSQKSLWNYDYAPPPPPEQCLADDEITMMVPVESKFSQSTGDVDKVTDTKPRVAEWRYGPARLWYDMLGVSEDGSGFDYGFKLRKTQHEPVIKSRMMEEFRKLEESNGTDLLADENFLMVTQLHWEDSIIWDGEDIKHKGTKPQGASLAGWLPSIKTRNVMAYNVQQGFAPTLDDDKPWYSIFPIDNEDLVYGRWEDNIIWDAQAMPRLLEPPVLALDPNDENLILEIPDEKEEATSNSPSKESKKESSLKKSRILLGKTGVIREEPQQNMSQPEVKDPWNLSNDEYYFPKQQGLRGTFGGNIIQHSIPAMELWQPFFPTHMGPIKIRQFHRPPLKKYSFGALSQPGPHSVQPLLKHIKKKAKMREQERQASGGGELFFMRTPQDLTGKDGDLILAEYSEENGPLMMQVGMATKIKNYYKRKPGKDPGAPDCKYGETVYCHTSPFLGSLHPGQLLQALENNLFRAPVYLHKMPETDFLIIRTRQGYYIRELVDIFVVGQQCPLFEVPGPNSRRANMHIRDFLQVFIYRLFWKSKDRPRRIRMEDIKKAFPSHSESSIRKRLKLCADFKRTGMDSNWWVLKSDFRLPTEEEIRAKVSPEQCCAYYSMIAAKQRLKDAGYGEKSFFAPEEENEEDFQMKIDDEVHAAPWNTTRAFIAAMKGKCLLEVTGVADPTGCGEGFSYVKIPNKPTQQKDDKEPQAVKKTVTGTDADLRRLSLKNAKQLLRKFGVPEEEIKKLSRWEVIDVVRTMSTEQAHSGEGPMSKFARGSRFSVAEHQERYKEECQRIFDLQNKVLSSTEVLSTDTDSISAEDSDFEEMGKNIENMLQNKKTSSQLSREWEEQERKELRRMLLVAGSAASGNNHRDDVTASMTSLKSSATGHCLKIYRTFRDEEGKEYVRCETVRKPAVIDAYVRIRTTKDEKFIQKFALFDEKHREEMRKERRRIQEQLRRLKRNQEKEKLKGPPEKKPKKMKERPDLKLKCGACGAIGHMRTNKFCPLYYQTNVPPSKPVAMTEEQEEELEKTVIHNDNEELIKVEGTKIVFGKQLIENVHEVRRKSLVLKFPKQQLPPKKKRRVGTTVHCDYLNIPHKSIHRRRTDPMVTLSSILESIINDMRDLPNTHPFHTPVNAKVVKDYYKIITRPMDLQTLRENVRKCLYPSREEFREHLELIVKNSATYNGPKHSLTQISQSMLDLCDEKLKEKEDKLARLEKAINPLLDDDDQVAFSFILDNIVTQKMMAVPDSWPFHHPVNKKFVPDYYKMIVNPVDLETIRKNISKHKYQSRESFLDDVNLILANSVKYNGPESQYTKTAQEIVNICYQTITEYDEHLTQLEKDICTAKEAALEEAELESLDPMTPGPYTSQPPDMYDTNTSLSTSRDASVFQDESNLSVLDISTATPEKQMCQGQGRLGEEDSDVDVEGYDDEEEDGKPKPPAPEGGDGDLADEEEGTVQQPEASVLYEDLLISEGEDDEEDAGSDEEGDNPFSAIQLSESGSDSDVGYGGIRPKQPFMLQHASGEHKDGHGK
Experimental: as §1, §5, §2
(§6) TAF1L(h) was incubated with 20 mM Tris/HCl pH 8.5, 0.2 mM EDTA, 250 µM RRRFRPASPLRGPPK (SEQ ID NO. 1), 10 mM magnesium acetate and γ-^33P-ATP (specific activity and concentration as required). The reaction was initiated by the addition of the Mg/ATP mix. After incubation for 120 minutes at room temperature, the reaction was stopped by the addition of phosphoric acid to a concentration of 0.5%. An aliquot of the stopped reaction was spotted onto a filter and washed four times for 4 minutes in 0.425% phosphoric acid and once in methanol prior to drying and scintillation counting.
as §4

[5] = target: T5, CDKL4(h) (Homo sapiens, UniProt Q5MAI5); test: radiometric kinase assay (KinaseProfiler, Eurofins), CDKL4; settings: in vitro radiometric kinase assay, tested at 1 nM to 10 000 nM, no pre-incubation; read-out: inhibitory activities (IC50 values) CDKL4
T5 construct: purchased Eurofins (KinaseProfiler)
T5 sequence (Q5MAI5 whole entry): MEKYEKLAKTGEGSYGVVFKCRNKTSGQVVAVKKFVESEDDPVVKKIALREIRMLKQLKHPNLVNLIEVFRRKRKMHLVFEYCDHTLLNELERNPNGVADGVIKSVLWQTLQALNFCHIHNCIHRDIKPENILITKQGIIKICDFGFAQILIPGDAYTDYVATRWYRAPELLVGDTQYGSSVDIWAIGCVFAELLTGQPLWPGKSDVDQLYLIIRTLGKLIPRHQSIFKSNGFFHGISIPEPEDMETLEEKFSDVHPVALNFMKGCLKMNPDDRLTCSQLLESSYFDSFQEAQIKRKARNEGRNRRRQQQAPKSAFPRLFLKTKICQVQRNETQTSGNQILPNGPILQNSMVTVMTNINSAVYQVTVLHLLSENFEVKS
Experimental: as §1, §5, §2
as §6, with “CDKL4(h) was” for “TAF1L(h) was”, “with 8” for “with 20”, “mM MOPS” for “mM Tris/HCl”, “pH 7.0,” for “pH 8.5,”
as §4

Compound	IC50 [1] [nM]	IC50 [2] [nM]	IC50 [3] [nM]	IC50 [4] [nM]	IC50 [5] [nM]
Cn1cncc1-c1ccc2scc(-c3ccncc3)c2n1 [Preparative Example 91, 5-(1-methyl-1H-imidazol-5-yl)-3-(pyridin-4-yl)thieno[3,2-b]pyridine]	500 to 3000	100 to 499	500 to 3000	100 to 499	500 to 3000
Cn1ncc(-c2ccc3scc(-c4ccncc4)c3n2)n1 [Preparative Example 94, 5-(2-methyl-2H-1,2,3-triazol-4-yl)-3-(pyridin-4-yl)thieno[3,2-b]pyridine]	3000 to 10000	3000 to 10000	3000 to 10000	500 to 3000	500 to 3000
Cn1cc(-c2ccc3scc(-c4cnn(C)c4)c3n2)cn1 [Preparative Example 63, 3,5-bis(1-methyl-1H-pyrazol-4-yl)thieno[3,2-b]pyridine]	100 to 499	100 to 499	500 to 3000	100 to 499	100 to 499
Cn1cc(-c2ccc3scc(-c4ccncc4)c3n2)cn1 [Preparative Example 13, 5-(1-methyl-1H-pyrazol-4-yl)-3-(pyridin-4-yl)thieno[3,2-b]pyridine]	500 to 3000	100 to 499	3000 to 10000	100 to 499	100 to 499
Cn1cc(-c2ccc3scc(-c4ccccc4)c3n2)cn1 [Preparative Example 2, 5-(1-methyl-1H-pyrazol-4-yl)-3-phenylthieno[3,2-b]pyridine]	500 to 3000	500 to 3000	3000 to 10000	100 to 499	100 to 499
Cn1cc(-c2ccc3scc(-c4ccnnc4)c3n2)cn1 [Preparative Example 40, 5-(1-methyl-1H-pyrazol-4-yl)-3-(pyridazin-4-yl)thieno[3,2-b]-pyridine]	500 to 3000	500 to 3000	3000 to 10000	100 to 499	500 to 3000
Cn1cc(-c2ccc3scc(-c4cccnc4)c3n2)cn1 [Preparative Example 11, 5-(1-methyl-1H-pyrazol-4-yl)-3-(pyridin-3-yl)thieno[3,2-b]pyridine]	500 to 3000	500 to 3000	3000 to 10000	500 to 3000	500 to 3000
Cn1ccc(Nc2ccc3scc(-c4ccncc4)c3n2)n1 [Preparative Example 99, N-(1-methyl-1H-pyrazol-3-yl)-3-(pyridin-4-yl)thieno[3,2-b]pyridin-5-amine]	3000 to 10000	500 to 3000	500 to 3000	500 to 3000	500 to 3000
Cn1cc(-c2ccc3scc(-c4cncs4)c3n2)cn1 [Preparative Example 69, 5-(1-methyl-1H-pyrazol-4-yl)-3-(thiazol-5-yl)thieno[3,2-b]pyridine]	100 to 499	100 to 499	500 to 3000	20 to 99	100 to 499

Results, then the compound that gave them:

IC50 [1] [nM]	IC50 [2] [nM]	IC50 [3] [nM]	IC50 [4] [nM]	IC50 [5] [nM]	Compound
3000 to 10000	3000 to 10000	3000 to 10000	3000 to 10000	3000 to 10000	c1ccc(-c2csc3ccc(-c4cnoc4)nc23)cc1 [Preparative Example 124, 4-(3-phenylthieno[3,2-b]pyridin-5-yl)isoxazole]
3000 to 10000	3000 to 10000	3000 to 10000	3000 to 10000	3000 to 10000	Fc1cc(-c2ccc3scc(-c4ccccc4)c3n2)cc(F)c1F [Preparative Example 122, 3-phenyl-5-(3,4,5-trifluorophenyl)thieno[3,2-b]pyridine]
3000 to 10000	3000 to 10000	3000 to 10000	3000 to 10000	500 to 3000	Cc1cc(-c2cnn(C)c2)nc2c(-c3ccncc3)csc12 [Preparative Example 157, 7-methyl-5-(1-methyl-1H-pyrazol-4-yl)-3-(pyridin-4-yl)thieno[3,2-b]pyridine]
3000 to 10000	500 to 3000	500 to 3000	100 to 499	100 to 499	Cn1cc(-c2cc(Cl)c3scc(-c4ccncc4)c3n2)cn1 [Preparative Example 162, 7-chloro-5-(1-methyl-1H-pyrazol-4-yl)-3-(pyridin-4-yl)thieno[3,2-b]pyridine]
500 to 3000	500 to 3000	100 to 499	20 to 99	100 to 499	c1cc(-c2csc3ccc(Nc4cc[nH]n4)nc23)ccn1 [Preparative Example 101, N-(1H-pyrazol-3-yl)-3-(pyridin-4-yl)thieno[3,2-b]pyridin-5-amine]
3000 to 10000	3000 to 10000	3000 to 10000	3000 to 10000	3000 to 10000	c1ccc(-c2csc3ccc(-c4ccoc4)nc23)cc1 [Preparative Example 123, 5-(furan-3-yl)-3-phenylthieno[3,2-b]pyridine]
3000 to 10000	500 to 3000	3000 to 10000	500 to 3000	500 to 3000	Cc1cc2scc(-c3ccncc3)c2nc1-c1cnn(C)c1 [Preparative Example 150, 6-methyl-5-(1-methyl-1H-pyrazol-4-yl)-3-(pyridin-4-yl)thieno[3,2-b]pyridine]
3000 to 10000	500 to 3000	500 to 3000	500 to 3000	500 to 3000	Cn1cc(-c2csc3ccc(Oc4ccccc4)nc23)cn1 [Preparative Example 139, 3-(1-methyl-1H-pyrazol-4-yl)-5-phenoxythieno[3,2-b]pyridine]

— patent EP4483954A1 (Masarykova Univerzita, priority 2023, dated 2025)
